In ChEMBL document CHEMBL3044885, “Synthesis and fungicidal activity against Rhizoctonia solani of 2-alkyl (Alkylthio)-5-pyrazolyl-1,3,4-oxadiazoles (Thiadiazoles)” (2000):

Legend:
Rhizoctonia solani [1] = test: Fungicidal activity against Rhizoctonia solani inoculated on compound pre-treated fifth-leaf stage rice seedlings through foliar spraying assessed as inhibition of rice sheath blight disease at 500 ppm measured 4 days post fungal inoculation
Rhizoctonia solani [2] = test: Fungicidal activity against Rhizoctonia solani inoculated on compound pre-treated fifth-leaf stage rice seedlings through foliar spraying assessed as inhibition of rice sheath blight disease at 100 ppm measured 4 days post fungal inoculation

SMILES	inhibition at 500 ppm (Rhizoctonia solani [1]) [%]	inhibition at 100 ppm (Rhizoctonia solani [2]) [%]
CCc1nn(C)c(-c2nnc(S)s2)c1Cl	100	90
CCc1nn(C)c(-c2nnc(SC)s2)c1Cl	90	90
CCSc1nnc(-c2c(Cl)c(CC)nn2C)s1	90	90
CCCSc1nnc(-c2c(Cl)c(CC)nn2C)s1	70	70
C=CCSc1nnc(-c2c(Cl)c(CC)nn2C)s1	50	25
CCCCCSc1nnc(-c2c(Cl)c(CC)nn2C)s1	70	25
CCc1nn(C)c(-c2nnc(S)o2)c1Cl	25	0
CCc1cc(-c2nnc(S)o2)n(C)n1	50	25
CCc1nn(C)c(-c2nnc(SC)o2)c1Cl	90	70
CCCSc1nnc(-c2c(Cl)c(CC)nn2C)o1	90	50
CCCCCSc1nnc(-c2c(Cl)c(CC)nn2C)o1	70	25
CCCCCCCSc1nnc(-c2c(Cl)c(CC)nn2C)o1	50	50
CCCCCCCCSc1nnc(-c2c(Cl)c(CC)nn2C)o1	50	50
CCOC(=O)C(C)Sc1nnc(-c2c(Cl)c(CC)nn2C)o1 (configuration not stated)	0	0
CCc1cc(-c2nnc(SC)o2)n(C)n1	90	50
CCSc1nnc(-c2cc(CC)nn2C)o1	90	50
CCCSc1nnc(-c2cc(CC)nn2C)o1	70	25
CCCCCSc1nnc(-c2cc(CC)nn2C)o1	50	0
CCOC(=O)C(C)Sc1nnc(-c2cc(CC)nn2C)o1 (configuration not stated)	25	0
CCc1nn(C)c(-c2n[nH]c(=O)o2)c1Cl	0	0
CCc1nn(C)c(-c2nn(C)c(=O)o2)c1Cl	25	0
CCc1nn(C)c(-c2nnc(CCl)o2)c1Cl	90	50
CCc1nn(C)c(-c2nnc(C(F)(F)F)o2)c1Cl	70	25
CCc1nnc(-c2c(Cl)c(CC)nn2C)o1	70	25
CCCCc1nnc(-c2c(Cl)c(CC)nn2C)o1	70	25
COC(=O)Nc1nc2ccccc2[nH]1 [CARBENDAZIM]	100	100
